This note sets out measurements from patent US12234216B2, “Isotopologues salts, crystalline forms, stereoisomers, of methylone and ethylone and methods of use thereof” (Terran Biosciences Inc., priority 2021, dated 2025).

One may read the Solubility as how much of the substance goes into solution per volume.

Structures can show the parent of a compound that is named as a salt.

Series [1] in a line: Solubility screen (solvent aliquots, visual inspection). The series is classed as physicochemical. How it is done:
The experiments were carried out by adding the test solvent in aliquots to weighed portions of solid. Whether dissolution had occurred was judged by visual inspection after addition of each solvent aliquot. Solubility numbers recorded in Table 4 were calculated by dividing the weight of the sample by the total amount of solvent used to dissolve the sample. The actual solubilities may be greater than the numbers calculated because of the use of solvent aliquots that were too large or because of slow dissolution rates. All solubility measurements were carried out at room temperature unless noted otherwise.

Series [2] in a line: Plasma and brain concentration at the end of the zero maze study. The series is classed as in vivo, rat. The following applies: terminal samples after 5, 15, 30 mg/kg ip; FIG. 68 and FIG. 69. The method, then:
Terminal sampling. At the end of the study, terminal blood was collected from 2 of the vehicle treated rats (>5 mL) and from all methylone HCl treated rats (500 uL) by CP under CO2. Blood samples were placed into Eppendorf tubes on ice containing 22 μL/mL blood (vehicle treated) or 11 μL EDTA (93 mg/mL) (Methylone HCl treated rats) and gently mixed. After no longer than 30 min, blood samples were centrifuged at 10,000 rpm×3 min and plasma samples (>2 mL (vehicle) or 2×100 μL (Methylone HCl treated) placed into Eppendorf tubes (Vehicle) or 96 well plates on dry ice. Immediately after blood sampling, brains were excised, rinsed in saline, blotted, weighed and snap-frozen in liquid N2. All samples were stored at −20° C. until dispatched on dry ice for analysis.
Terminal sampling. At the end of the study, terminal blood was collected from 2 of the vehicle treated rats (>5 mL) and from all S-methylone HCl treated rats (500 uL) by CP under CO2. Blood samples were placed into Eppendorf tubes on ice containing 22 μL/mL blood (vehicle treated) or 11 μL EDTA (93 mg/mL) (S-methylone HCl treated rats) and gently mixed. […]

A short description of series [3]: Dynamic vapor sorption (DVS). It is filed as physicochemical.
The subject of the next series is Male Sprague-Dawley rats. Description: Rat elevated zero-maze model of anxiety. The series is classed as in vivo. The source says: The rat zero-maze model is a refined alternative to the plus-maze, the most widely used animal model of anxiety, and consists of an elevated annular platform, divided equally into four quadrants. Two opposite quadrants are enclosed by Perspex walls on both the inner and the outer edges of the platform, while the remaining two opposite quadrants are open being enclosed only by a Perspex “lip”. Animals will show a preference for the closed areas, and avoidance of the open sections is assumed to stem from a rodent's natural aversion to open, exposed spaces. The primary index of anxiety, which reflect changes in open arm preference, is the percentage of time spent on the open areas. A reduction in the amount of activity on the open areas is considered to reflect an increase in anxiety. Other, ethologically-based behaviours are also assessed as indices of anxiety. One of the most important is stretched attend postures (SAP) from closed to open quadrants. […] Shepherd, J K; et al., (1994) Behavioural and pharmacological validation of the elevated “zero-maze” as an animal model of anxiety. Psychopharmacol., 116:56-64.
Male Sprague-Dawley 200-250 g (Envigo UK) rats were used. Animals were group-housed (5 per cage; cage size: 40×40×20 cm) in a temperature-controlled environment (22±2° C.), under a 12 h light-dark cycle (lights on: 08:00 hours) for one week prior to testing. Food and water were freely available. Number of animals per group=5. Animals were moved into the experimental room 16-24 hours before testing.
The elevated 0-maze comprises a black Perspex annular platform (105 cm diameter, 10 cm width) elevated to 65 cm above ground level, divided equally into four quadrants. Two opposite quadrants are enclosed by clear red Perspex walls (27 cm high) on both the inner and outer edges of the platform, while the remaining two opposite quadrants are surrounded only by a Perspex “lip” (1 cm high) which serves as a tactile guide to animals on these open areas.
Subjects were weighed and tail marked before being injected. After a specified pre-treatment time, subjects were placed in a closed quadrant and a 5-min test period were recorded on videotape for subsequent analysis. The maze were cleaned with 5% methanol/water solution and dried thoroughly between test sessions. Behavioural measures comprise percentage time spent on the open areas (% TO) and frequency of stretched attend postures (SAP) from closed to open quadrants. Since the control groups were all treated identically with the same vehicle these were combined to increase power. The Chlordiazepoxide groups were also treated identically with the same dose so these were also combined to increase power. Animals are scored as being in the open area when all four paws were in an open quadrant and in the closed area only when all four paws have passed over the open-closed divide. All testing were carried out between 9.00 and 16.00 hours.
For each study, a 1-way ANOVA was conducted across vehicle, CDP, and drug treatment groups. Each group was compared to the vehicle group and a p-value for treatment determined by Fishers Least Significant Difference (LSD) test. This analysis was performed in GraphPad Prism (Version 9). Formulations: […]
Intraperitoneal (IP): Racemic methylone HCl was formulated in Vehicle 1 (Saline) for injection to concentrations of 1, 3 and 6 mg/mL to provide doses of 5, 15 and 30 mg/kg when administered ip in 5 mL/kg dosing volumes.
Intraperitoneal (IP): S-methylone HCl was formulated in Vehicle 1 (Saline) for injection to concentrations of 0.5, 1, 1.5, 3 and 6 mg/mL to provide doses of 2.5, 5, 7.5, 15 and 30 mg/kg when administered ip in 5 mL/kg dosing volumes.
Intraperitoneal (IP): R-methylone HCl was formulated in Vehicle 1 (Saline) for injection to concentrations of 1, 3 and 6 mg/mL to provide doses of 5, 15 and 30 mg/kg when administered ip in 5 mL/kg dosing volumes. […]

Turning to `CNC(C)C(=O)c1ccc2c(c1)OCO2` (racemic) [(rac)-Methylone Hydrochloride, 3,4-methylenedioxy-N-methylcathinone hydrochloride], the “Solubility” value came out at 48 mg/mL in series [1] (MeOH, room temperature) and 45 mg/mL in series [1] (MeOH/CHCl3 50/50, room temperature). In series [2], the “concentration in plasma and brain” value is “increased in both brain and plasma at the higher doses”. In addition, in series [3] (DVS (FIG. 26)), the “relative humidity above which water uptake is seen” value is “above 75 % RH”. Further, the “physical stability after the moisture sorption-desorption analysis” value in series [3] (between 5% RH and 95% RH) is listed as “physically stable”. The “behaviour of the material on humidity exposure” value in series [3] (exposed to 75% RH for 2 hours) was “became tacky and stuck to the vial”. Besides, the “overall effect on anxiety” value is on record as “anxiogenic effect” with Male Sprague-Dawley rats (5 mg/kg ip) and “mixed anxiogenic anxiolytic effect” in the series with Male Sprague-Dawley rats (15 mg/kg ip). Moreover, the “time spent in the open arms” value with Male Sprague-Dawley rats (5 mg/kg ip, vs placebo) is “decrease in time spent in the open arms vs placebo”; with Male Sprague-Dawley rats (15 mg/kg ip, vs placebo) it was “no difference from placebo in time spent in the open arms”; in the series on Male Sprague-Dawley rats (30 mg/kg ip), “significant decrease in time spent in the open arms”. For the same compound, the “frequency of SAPs” value with Male Sprague-Dawley rats (15 mg/kg ip) was “dose dependent decrease in SAPs”; with Male Sprague-Dawley rats (30 mg/kg ip) it was “decrease in SAPs”; with Male Sprague-Dawley rats (specific doses, ip, 30 min pretest, vs chlordiazepoxide 6 mg/kg, FIGS. 65-67), “decreased the frequency of SAPs as effectively as the benzodiazepine chlordiazepoxide”. Besides, the “decrease in SAPs compared with chlordiazepoxide” value in the series with Male Sprague-Dawley rats (15 mg/kg ip vs chlordiazepoxide 6 mg/kg ip) is on record as “not as effective as chlordiazepoxide”. For the same compound, the “anxiolytic effects compared with chlordiazepoxide” value in the series on Male Sprague-Dawley rats (high dose level) is on record as “anxiolytic effects as effective as chlordiazepoxide”. For the same compound, in the series on Male Sprague-Dawley rats (lower doses, ip), the “anxiogenic effects at lower doses” value was “anxiogenic effects at lower doses”. In the series on Male Sprague-Dawley rats (specific doses, ip, 30 min pretest, FIGS. 62-64), the “time in the open arms” value is reported as “increase time in the open arms”.
